Data taken from PubChem BioAssay (NCI).
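The compound was tested at five concentrations on cells cultured in 96-well plates, with a 48-hour exposure period. GI50: concentration for 50% inhibition of growth. The concentration for full growth arrest is given as TGI.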

What was measured:
Experiment in all cases: NCI-60 cell line screen, 48 h
786-0 renal = tested on: 786-0 renal
A549 NSCLC = tested on: A549 NSCLC
ACHN renal = tested on: ACHN renal
BT-549 breast = tested on: BT-549 breast
CAKI-1 renal = tested on: CAKI-1 renal
CCRF-CEM leukemia = tested on: CCRF-CEM leukemia
COLO 205 colon = tested on: COLO 205 colon
DU-145 prostate = tested on: DU-145 prostate
EKVX NSCLC = tested on: EKVX NSCLC
HCC-2998 colon = tested on: HCC-2998 colon
HCT-116 colon = tested on: HCT-116 colon
HCT-15 colon = tested on: HCT-15 colon
HOP-62 NSCLC = tested on: HOP-62 NSCLC
HOP-92 NSCLC = tested on: HOP-92 NSCLC
HS 578T breast = tested on: HS 578T breast
HT29 colon = tested on: HT29 colon
IGROV1 ovarian = tested on: IGROV1 ovarian
K-562 leukemia = tested on: K-562 leukemia
KM12 colon = tested on: KM12 colon
LOX IMVI melanoma = tested on: LOX IMVI melanoma
M14 melanoma = tested on: M14 melanoma
MCF7 breast = tested on: MCF7 breast
MDA-MB-231 breast = tested on: MDA-MB-231 breast
MDA-MB-435 = tested on: MDA-MB-435
MOLT-4 leukemia = tested on: MOLT-4 leukemia
NCI-H226 lung = tested on: NCI-H226 lung
NCI-H23 lung = tested on: NCI-H23 lung
NCI-H460 lung = tested on: NCI-H460 lung
NCI-H522 lung = tested on: NCI-H522 lung
NCI/ADR-RES ovarian = tested on: NCI/ADR-RES ovarian
OVCAR-3 ovarian = tested on: OVCAR-3 ovarian
OVCAR-4 ovarian = tested on: OVCAR-4 ovarian
OVCAR-5 ovarian = tested on: OVCAR-5 ovarian
OVCAR-8 ovarian = tested on: OVCAR-8 ovarian
PC-3 prostate = tested on: PC-3 prostate
RPMI-8226 leukemia = tested on: RPMI-8226 leukemia
RXF 393 renal = tested on: RXF 393 renal
SF-268 CNS = tested on: SF-268 CNS
SF-295 CNS = tested on: SF-295 CNS
SF-539 CNS = tested on: SF-539 CNS
SK-MEL-2 melanoma = tested on: SK-MEL-2 melanoma
SK-MEL-28 melanoma = tested on: SK-MEL-28 melanoma
SK-MEL-5 melanoma = tested on: SK-MEL-5 melanoma
SK-OV-3 ovarian = tested on: SK-OV-3 ovarian
SN12C renal = tested on: SN12C renal
SNB-19 CNS = tested on: SNB-19 CNS
SNB-75 CNS = tested on: SNB-75 CNS
SW-620 colon = tested on: SW-620 colon
T-47D breast = tested on: T-47D breast
TK-10 renal = tested on: TK-10 renal
U251 CNS = tested on: U251 CNS
UACC-257 melanoma = tested on: UACC-257 melanoma
UACC-62 melanoma = tested on: UACC-62 melanoma
UO-31 renal = tested on: UO-31 renal

## O=C1CCS/C(=N\S(=O)(=O)c2ccc(N3N=C4c5ccccc5CC4C3c3cccs3)cc2)N1C(=O)c1ccccc1 (stereo not drawn)
786-0 renal
  GI50: 14.1 µM
  TGI: 27.2 µM
A549 NSCLC
  GI50: 10.6 µM
  TGI: 24.3 µM
ACHN renal
  GI50: 5.18 µM
  TGI: 18.5 µM
BT-549 breast
  GI50: 4.77 µM
  TGI: > 100 µM
CAKI-1 renal
  GI50: 26.8 µM
  TGI: 86.6 µM
CCRF-CEM leukemia
  GI50: 15 µM
  TGI: 42.7 µM
COLO 205 colon
  GI50: 66.5 µM
  TGI: > 100 µM
DU-145 prostate
  GI50: 23.2 µM
  TGI: > 100 µM
EKVX NSCLC
  GI50: 22.1 µM
  TGI: > 100 µM
HCC-2998 colon
  GI50: 18.2 µM
  TGI: 32.1 µM
HCT-116 colon
  GI50: 10 µM
  TGI: 21.6 µM
HCT-15 colon
  GI50: 15.1 µM
  TGI: 31.3 µM
HOP-62 NSCLC
  GI50: 31.1 µM
  TGI: > 100 µM
HOP-92 NSCLC
  GI50: 25.4 µM
  TGI: > 100 µM
HS 578T breast
  GI50: 2.85 µM
  TGI: 34.2 µM
HT29 colon
  GI50: 39.6 µM
  TGI: > 100 µM
IGROV1 ovarian
  GI50: 14.5 µM
  TGI: 29.9 µM
K-562 leukemia
  GI50: 26.4 µM
  TGI: > 100 µM
KM12 colon
  GI50: 29.4 µM
  TGI: 83.1 µM
LOX IMVI melanoma
  GI50: 7.61 µM
  TGI: 23.8 µM
M14 melanoma
  GI50: 10.8 µM
  TGI: 27.2 µM
MCF7 breast
  GI50: 9.1 µM
  TGI: > 100 µM
MDA-MB-231 breast
  GI50: 5.77 µM
  TGI: 26.8 µM
MDA-MB-435
  GI50: 22.7 µM
  TGI: 53.4 µM
MOLT-4 leukemia
  GI50: 5.04 µM
  TGI: 77.9 µM
NCI-H226 lung
  GI50: 15.9 µM
  TGI: 41 µM
NCI-H23 lung
  GI50: 17.2 µM
  TGI: 41.5 µM
NCI-H460 lung
  GI50: 26.6 µM
  TGI: > 100 µM
NCI-H522 lung
  GI50: 14.4 µM
  TGI: 65.1 µM
NCI/ADR-RES ovarian
  GI50: 32.9 µM
  TGI: > 100 µM
OVCAR-3 ovarian
  GI50: 27.4 µM
  TGI: 67.1 µM
OVCAR-4 ovarian
  GI50: > 100 µM
  TGI: > 100 µM
OVCAR-5 ovarian
  GI50: 25.8 µM
  TGI: 54.3 µM
OVCAR-8 ovarian
  GI50: 0.816 µM
  TGI: 17.5 µM
PC-3 prostate
  GI50: 29.2 µM
  TGI: > 100 µM
RPMI-8226 leukemia
  GI50: 5.86 µM
  TGI: > 100 µM
RXF 393 renal
  GI50: 6.31 µM
  TGI: 33 µM
SF-268 CNS
  GI50: 13.7 µM
  TGI: > 100 µM
SF-295 CNS
  GI50: 32.7 µM
  TGI: > 100 µM
SF-539 CNS
  GI50: 2.38 µM
  TGI: > 100 µM
SK-MEL-2 melanoma
  GI50: 29.4 µM
  TGI: > 100 µM
SK-MEL-28 melanoma
  GI50: 50.2 µM
  TGI: > 100 µM
SK-MEL-5 melanoma
  GI50: 2.56 µM
  TGI: 6.07 µM
SK-OV-3 ovarian
  GI50: 52.8 µM
  TGI: > 100 µM
SN12C renal
  GI50: 16.7 µM
  TGI: 57.1 µM
SNB-19 CNS
  GI50: 45.7 µM
  TGI: > 100 µM
SNB-75 CNS
  GI50: > 100 µM
  TGI: > 100 µM
SW-620 colon
  GI50: 13.1 µM
  TGI: > 100 µM
T-47D breast
  GI50: > 100 µM
  TGI: > 100 µM
TK-10 renal
  GI50: 24.5 µM
  TGI: 54.7 µM
U251 CNS
  GI50: 4.5 µM
  TGI: 17.4 µM
UACC-257 melanoma
  GI50: 0.334 µM
  TGI: 20.6 µM
UACC-62 melanoma
  GI50: 6.37 µM
  TGI: 28 µM
UO-31 renal
  GI50: 30.7 µM
  TGI: > 100 µM
